Test results: patent US20180370927A1, “MICROBIOCIDAL OXADIAZOLE DERIVATIVES” (SYNGENTA PARTICIPATIONS AG, priority 2015, published 2018)

Assays:
[1] = tested on: Puccinia recondita f. Sp. Tritici; experiment: Puccinia recondita f. sp. tritici / wheat / leaf disc curative (brown rust); format: in vivo; details: foliar, 200 ppm in the applied formulation, wheat leaf segments, curative (applied 1 day after inoculation), assessed 6 to 8 days after application, read-out: disease control compared to untreated control leaf disks
Procedure: (§1) Leaf disks or leaf segments of various plant species are cut from plants grown in a greenhouse. The cut leaf disks or segments are placed in multiwell plates (24-well format) onto water agar. The leaf disks are sprayed with a test solution before (preventative) or after (curative) inoculation. Compounds to be tested are prepared as DMSO solutions (max. 10 mg/mL) which are diluted to the appropriate concentration with 0.025% Tween20 just before spraying. The inoculated leaf disks or segments are incubated under defined conditions (temperature, relative humidity, light, etc.) according to the respective test system. A single evaluation of disease level is carried out 3 to 14 days after inoculation, depending on the pathosystem. Percent disease control relative to the untreated check leaf disks or segments is then calculated.
Example 2: Fungicidal Activity Against Puccinia recondita f. Sp. Tritici/Wheat/Leaf Disc Curative (Brown Rust)
Wheat leaf segments cv. Kanzler are placed on agar in multiwell plates (24-well format). The leaf segments are then inoculated with a spore suspension of the fungus. Plates were stored in darkness at 19° C. and 75% relative humidity. The formulated test compound diluted in water was applied 1 day after inoculation. The leaf segments were incubated at 19° C. and 75% relative humidity under a light regime of 12 hours light/12 hours darkness in a climate cabinet and the activity of a compound was assessed as percent disease control compared to untreated when an appropriate level of disease damage appears in untreated check leaf segments (6 to 8 days after application).
(§2) The following compounds at 200 ppm in the applied formulation give at least 80% disease control in this test when compared to untreated control leaf disks under the same conditions, which show extensive disease development.

[2] = tested on: Glomerella lacenarium (Colletotrichum lacenarium); experiment: Glomerella lacenarium (Colletotrichum lacenarium) liquid culture / cucumber / preventative (anthracnose); format: cell-based; details: 20 ppm in the applied formulation, liquid culture in PDB, 24° C., 3 to 4 days after application, read-out: disease control (inhibition of growth, photometric) compared to untreated control
Procedure: Mycelia fragments or conidia suspensions of a fungus prepared either freshly from liquid cultures of the fungus or from cryogenic storage, are directly mixed into nutrient broth. DMSO solutions of the test compound (max. 10 mg/ml) are diluted with 0.025% Tween20 by a factor of 50 and 10 μL of this solution is pipetted into a microtiter plate (96-well format). The nutrient broth containing the fungal spores/mycelia fragments is then added to give an end concentration of the tested compound. The test plates are incubated in the dark at 24° C. and 96% relative humidity. The inhibition of fungal growth is determined photometrically after 2 to 7 days, depending on the pathosystem, and percent antifungal activity relative to the untreated check is calculated.
Example 4: Fungicidal Activity Against Glomerella lacenarium (Colletotrichum lacenarium) Liquid Culture/Cucumber/Preventative (Anthracnose)
Conidia of the fungus from cryogenic storage are directly mixed into nutrient broth (PDB—potato dextrose broth). After placing a (DMSO) solution of test compound into a microtiter plate (96-well format), the nutrient broth containing the fungal spores is added. The test plates are incubated at 24° C. and the inhibition of growth is measured photometrically 3 to 4 days after application.
The following compounds at 20 ppm in the applied formulation give at least 80% disease control in this test when compared to untreated control under the same conditions, which show extensive disease development.

[3] = tested on: Puccinia recondita f. Sp. Tritici; experiment: Puccinia recondita f. sp. tritici / wheat / leaf disc preventative (brown rust); format: in vivo; details: foliar, 200 ppm in the applied formulation, wheat leaf segments, preventative, assessed 7 to 9 days after application, read-out: disease control compared to untreated control leaf disks
Procedure: as §1
Example 1: Fungicidal Activity Against Puccinia recondita f. Sp. Tritici/Wheat/Leaf Disc Preventative (Brown Rust)
Wheat leaf segments cv. Kanzler were placed on agar in multiwell plates (24-well format) and sprayed with the formulated test compound diluted in water. The leaf disks were inoculated with a spore suspension of the fungus 1 day after application. The inoculated leaf segments were incubated at 19° C. and 75% relative humidity (rh) under a light regime of 12 hours light/12 hours darkness in a climate cabinet and the activity of a compound was assessed as percent disease control compared to untreated when an appropriate level of disease damage appears in untreated check leaf segments (7 to 9 days after application).
as §2

Row | SMILES | pest or weed control at 200 ppm [1] | inhibition at 20 ppm [2] | pest or weed control at 200 ppm [3]
1 | CCCC(=O)C(=O)N(CCOC)Cc1ccc(-c2noc(C(F)(F)F)n2)cc1 [Compound 1.9, N-(2-methoxyethyl)-2-oxo-N-[[4-[5-(trifluoromethyl)-1,2,4-oxadiazol-3-yl]phenyl]methyl]pentanamide] | ≥ 80% | ≥ 80% | ≥ 80%
2 | CC(=O)C(=O)N(Cc1ccc(-c2noc(C(F)(F)F)n2)cc1)CC1CCCO1 (stereo not shown) [Compound 1.14, 2-oxo-N-(tetrahydrofuran-2-ylmethyl)-N-[[4-[5-(trifluoromethyl)-1,2,4-oxadiazol-3-yl]phenyl]methyl]propanamide] | ≥ 80% | ≥ 80% | ≥ 80%
3 | CCCC(=O)C(=O)N(Cc1ccc(-c2noc(C(F)(F)F)n2)cc1)Cc1ccco1 [Compound 1.15, N-(2-furylmethyl)-2-oxo-N-[[4-[5-(trifluoromethyl)-1,2,4-oxadiazol-3-yl]phenyl]methyl]pentanamide] | ≥ 80% | ≥ 80% | ≥ 80%
4 | CC(=O)C(=O)NCc1ccc(-c2noc(C(F)(F)F)n2)c(F)c1 [Compound 1.25, N-[[3-fluoro-4-[5-(trifluoromethyl)-1,2,4-oxadiazol-3-yl]phenyl]methyl]-2-oxo-propanamide] | ≥ 80% | ≥ 80% | ≥ 80%
5 | CC(=O)C(=O)NCc1ccc(-c2noc(C(F)(F)F)n2)cc1F [Compound 1.26, N-[[2-fluoro-4-[5-(trifluoromethyl)-1,2,4-oxadiazol-3-yl]phenyl]methyl]-2-oxo-propanamide] | ≥ 80% | ≥ 80% | ≥ 80%
6 | CC(=O)C(=O)NCc1ccc(-c2noc(C(F)(F)F)n2)c(F)c1F [Compound 1.27, N-[[2,3-difluoro-4-[5-(trifluoromethyl)-1,2,4-oxadiazol-3-yl]phenyl]methyl]-2-oxo-propanamide] | ≥ 80% | ≥ 80% | ≥ 80%
7 | CCC(=O)C(=O)NCc1ccc(-c2noc(C(F)(F)F)n2)cc1C [Compound 1.85, N-[[2-methyl-4-[5-(trifluoromethyl)-1,2,4-oxadiazol-3-yl]phenyl]methyl]-2-oxo-butanamide] | ≥ 80% | ≥ 80% | ≥ 80%
8 | COC(=O)C(=O)N(Cc1ccc(-c2noc(C(F)(F)F)n2)cc1)OC [Compound 3.2, methyl 2-[methoxy-[[4[5-(trifluoromethyl)-1,2,4-oxadiazol-3-yl]phenyl]methyl]amino]-2-oxo-acetate] | ≥ 80% | ≥ 80% | ≥ 80%
9 | CON(Cc1ccc(-c2noc(C(F)(F)F)n2)cc1)C(=O)C(=O)OC1COC1 [Compound 3.3, oxetan-3-yl 2-[methoxy-[[4-[5-(trifluoromethyl)-1,2,4-oxadiazol-3-yl]phenyl]methyl]amino]-2-oxo-acetate] | ≥ 80% | ≥ 80% | ≥ 80%
10 | CON(Cc1ccc(-c2noc(C(F)(F)F)n2)cc1)C(=O)C(=O)O [Compound 3.7, 2-[methoxy-[[4-[5-(trifluoromethyl)-1,2,4-oxadiazol-3-yl]phenyl]methyl]amino]-2-oxo-acetic acid] | ≥ 80% | ≥ 80% | –
11 | CCOC(=O)C(=O)N(Cc1ccc(-c2noc(C(F)(F)F)n2)cc1)OC [Compound 3.10, ethyl 2-[methoxy-[[4-[5-(trifluoromethyl)-1,2,4-oxadiazol-3-yl]phenyl]methyl]amino]-2-oxo-acetate] | ≥ 80% | ≥ 80% | ≥ 80%
12 | CN(C)C(=O)C(=O)Nc1ccc(-c2noc(C(F)(F)F)n2)cn1 [Compound 4.10, N′,N′-dimethyl-N-[5-[5-(trifluoromethyl)-1,2,4-oxadiazol-3-yl]-2-pyridyl] oxamide] | ≥ 80% | – | ≥ 80%
13 | COCCN(Cc1ccc(-c2noc(C(F)(F)F)n2)cc1)C(=O)C(N)=O [Compound 4.12, N′-(2-methoxyethyl)-N′-[[4-[5-(trifluoromethyl)-1,2,4-oxadiazol-3-yl]phenyl]methyl] oxamide] | ≥ 80% | ≥ 80% | ≥ 80%
14 | CCC(C)N(Cc1ccc(-c2noc(C(F)(F)F)n2)cc1)C(=O)C(N)=O (stereo not shown) [Compound 4.13, N′-sec-butyl-N′-[[4-[5-(trifluoromethyl)-1,2,4-oxadiazol-3-yl]phenyl]methyl] oxamide] | ≥ 80% | ≥ 80% | ≥ 80%
15 | CC(C)(CS(C)(=O)=O)NC(=O)C(=O)Nc1ccc(-c2noc(C(F)(F)F)n2)cc1 [Compound 4.17] | ≥ 80% | – | ≥ 80%
16 | CCNC(=O)C(=O)NCc1ccc(-c2noc(C(F)(F)F)n2)cc1 [Compound 4.49, N-ethyl-N′-[[4-[5-(trifluoromethyl)-1,2,4-oxadiazol-3-yl]phenyl]methyl] oxamide] | – | ≥ 80% | ≥ 80%
17 | C=CCNC(=O)C(=O)NCc1ccc(-c2noc(C(F)(F)F)n2)cc1 [Compound 4.57, N-allyl-N′-[[4-[5-(trifluoromethyl)-1,2,4-oxadiazol-3-yl]phenyl]methyl] oxamide] | – | ≥ 80% | ≥ 80%
18 | O=C(NCc1ccc(-c2noc(C(F)(F)F)n2)cc1)C(=O)NCc1ccco1 [Compound 4.60, N′-(2-furylmethyl)-N-[[4-[5-(trifluoromethyl)-1,2,4-oxadiazol-3-yl]phenyl]methyl] oxamide] | – | ≥ 80% | ≥ 80%
19 | CON(Cc1ccc(-c2noc(C(F)(F)F)n2)cc1)C(=O)C(=O)NC1CCCCC1 [Compound 4.63, N-cyclohexyl-N′-methoxy-N′-[[4-[5-(trifluoromethyl)-1,2,4-oxadiazol-3-yl]phenyl]methyl] oxamide] | – | ≥ 80% | ≥ 80%
20 | CON(Cc1ccc(-c2noc(C(F)(F)F)n2)cc1)C(=O)C(=O)Nc1ccccc1 [Compound 4.70, N′-methoxy-N-phenyl-N′-[[4-[5-(trifluoromethyl)-1,2,4-oxadiazol-3-yl]phenyl]methyl] oxamide] | – | ≥ 80% | ≥ 80%
21 | CON(Cc1ccc(-c2noc(C(F)(F)F)n2)cc1)C(=O)C(=O)NCc1ccccc1 [Compound 4.71, N-benzyl-N′-methoxy-N'-[[4-[5-(trifluoromethyl)-1,2,4-oxadiazol-3-yl]phenyl]methyl] oxamide] | – | ≥ 80% | ≥ 80%
22 | CON(Cc1ccc(-c2noc(C(F)(F)F)n2)cc1)C(=O)C(=O)NC1CCCC1 [Compound 4.79, N-cyclopentyl-N′-methoxy-N′-[[4-[5-(trifluoromethyl)-1,2,4-oxadiazol-3-yl]phenyl]methyl] oxamide] | – | ≥ 80% | ≥ 80%
23 | CON(Cc1ccc(-c2noc(C(F)(F)F)n2)cc1)C(=O)C(=O)NCc1ccco1 [Compound 4.81, N-(2-furylmethyl)-N′-methoxy-N′-[[4-[5-(trifluoromethyl)-1,2,4-oxadiazol-3-yl]phenyl]methyl] oxamide] | – | ≥ 80% | ≥ 80%
